One data set deals with MOLM14 and KOPN8 cells. Put plainly: Validation of ABT-199/ABT-737 + AS/ART-838 combinations, alamarBlue, Chou-Talalay. It counts as cell-based, human. The conditions noted are these: MOLM14 and KOPN8, AS or ART-838 at IC50, 48 h. As for the experimental part:
FIGS. 10A-10B. Validation of cytotoxicity of ABT-199/ABT-737+AS/ART-838 combinations by alamarBlue assay. […] Each experiment was performed in triplicate. All data points between 0.1-99.9% growth inhibition were analyzed using the methods of Chou and Talalay and combination indices (CIs) calculated. CIs were graphed against the fractional effect (FE; the fraction of cells inhibited at each concentration). CI<1 indicates synergy, CI=1, additivity, CI>1, antagonism.
MOLM14 or KOPN8 cells were seeded in 96-well plates as described above for alamarBlue assays. Cells were treated with a certain concentrations of AS, or ART-838 or DHA, in combination with a range of concentrations of ABT-199 or ABT-263 or ABT-737. AlamarBlue assays were performed as described above. Each set of drugs or drug combinations was tested in triplicate. Chou-Talalay drug combination analysis was performed as above.
Cytotoxicity of the individual drugs and combinations was assessed using alamarBlue fluorescence, a more sensitive indicator of cell metabolism (as a surrogate for cell number) than MTS.
Drug combination interactions were assessed using the methods of Chou-Talalay, a more robust measure of synergy than the Bliss independence model. The Chou-Talalay method, however, can only be used at drug effect levels from 0.1-99.9%. […]
(Alamar Blue is a resazurin reagent that responds to reducing activity.)

The next data set deals with MOLM14. Put plainly: Kinase inhibitor drug combination screen (MTS, Bliss-independence analysis).
The test system of the next data set is Kasumi-1. Described as above. The conditions noted are these: Kasumi-1, Drug 2 = ART-838 at approximate IC50, 48 h.
The next data set concerns KOPN8. Described as above.
In another data set the test system is RCH-ACV. The description is as above.
Data set [1] concerns MOLM14, Kasumi-1, KOPN8 and RCH-ACV leukemia cell lines. Put plainly: Kinase inhibitor drug combination screen, summary over the four leukemia cell lines.
Description: Hits were ranked by the observed inhibition over the Bliss independence prediction.
Combinations with positive values for this Bliss difference were considered synergistic, values near zero, additive, and negative values, antagonistic.

The values below come from patent US9918972B2, “Treatment of leukemia with artemisinin derivatives and combinations with other antineoplastic agents” (UNIVERSITY OF MARYLAND, BALTIMORE, priority 2014, dated 2018).

As to `CN(C)CC[C@H](CSc1ccccc1)Nc1ccc(S(=O)(=O)NC(=O)c2ccc(N3CCN(Cc4ccccc4-c4ccc(Cl)cc4)CC3)cc2)cc1[N+](=O)[O-]` [ABT-737], the “cytotoxic efficacy on addition of AS or ART-838” value with MOLM14 and KOPN8 cells is recorded as “potently increased the efficacy”. Besides, the “fractional inhibition over Bliss prediction” value with MOLM14 (MOLM14, Drug 2 = ART-838 at approximate IC50, 48 h) was “MOLM14 (0.34),”; with MOLM14 (MOLM14, Drug 2 = AS at approximate IC50, 48 h) it was “MOLM14 (0.50),”; in the data set on Kasumi-1 it was “Kasumi-1 (0.11),”; in the data set with KOPN8 (KOPN8, Drug 2 = ART-838 at approximate IC50, 48 h), “KOPN8 (0.28),”; with KOPN8 (KOPN8, Drug 2 = AS at approximate IC50, 48 h), “KOPN8 (0.25),”; with RCH-ACV (Drug 2 = ART-838 at approximate IC50, 48 h) it was “RCH-ACV (0.24)”. Also, the “fractional inhibition over Bliss prediction” value with RCH-ACV (Drug 2 = AS at approximate IC50, 48 h) is on record as “RCH-ACV (0.23)”. The “No. Cell Lines” value in data set [1] (cell lines synergistically inhibited (>10% over Bliss) by drug 1 combined with AS and/or ART-838) is 4/4. In addition, the “cell lines in which combination was synergistic” value is reported as 4/4 in data set [1] (plus ART-838) and 3/4 in data set [1] (plus AS). Moreover, the “average inhibition over the Bliss prediction” value in data set [1] (plus ART-838, average over synergistic cell lines) is listed as 24%. Further, the “average inhibition over the Bliss independence prediction” value in data set [1] (plus AS, average over synergistic cell lines) is 33%. Moreover, the “synergy with AS or ART-838” value in data set [1] (screens in four human leukemia cell lines) is “Particularly strong synergy”.
